Reference: ChEMBL document CHEMBL1157139, “A structural analysis of the differential cytotoxicity of chemicals in the NCI-60 cancer cell lines” (2008)

Experiments:
Assay type in all cases: functional
NCI-H23 = test: Cytotoxicity against human NCI-H23 cells; settings: for CC50: read-out: pLC50 (the source's name) (converted); for TGI: read-out: pTGI (converted)
NCI-H522 = test: Cytotoxicity against human NCI-H522 cells; settings: for TGI: read-out: pTGI (converted)
A549 = test: Cytotoxicity against human A549 cells; settings: for GI50: A549; for CC50: A549, read-out: pLC50 (converted); for TGI: A549, read-out: pTGI (converted)

| SMILES | GI50 (NCI-H23) [µM] | CC50 (NCI-H23) [µM] | TGI (NCI-H23) [µM] | GI50 (NCI-H522) [µM] | TGI (NCI-H522) [µM] | GI50 (A549) [µM] | CC50 (A549) [µM] | TGI (A549) [µM] |
| --- | --- | --- | --- | --- | --- | --- | --- | --- |
| O=C(O)c1ccccn1 [2-PICOLINIC ACID] | 61.8 | 88.5 | 74 | 0.693 | 1.05 | 65.2 | > 100 | 82 |
| C[C@@H]1C[C@@H]([C@H](O)CC2CC(=O)NC(=O)C2)C(=O)[C@@H](C)C1 [CYCLOHEXIMIDE] | > 100 | > 100 | > 100 | > 100 | > 100 | > 100 | > 100 | > 100 |
